Results as given in patent US8598168B2 (MethylGene Inc., priority 2006, dated 2013).

Key:
[1] = tested on: p21 promoter-driven luciferase in HCT116 cells; test: p21WAF1/Cip1 Assay (p21 promoter-driven luciferase reporter); format: cell-based, human; settings: 16 hours treatment, value designated as reference
Description: HCT116 cells were stably transfected with reporter plasmids encoding the p21 promoter-driven luciferase. Cells were treated with indicated concentration of HDAC inhibitors for 16 hours before cells were harvested and luciferase activity analyzed. The effective concentration (EC) of MS-275 was designated as 1 μM. The ability of HDAC inhibitor was compared with that of MS-275 (T. Suzuki, et. al J. Med. Chem., 1999, 3001-3003).

HDAC-1 = HDAC-1 (Homo sapiens, UniProt Q13547); test: Inhibition of Histone Deacetylase Enzymatic (HDAC-1) Activity; format: biochemical; settings: Table 21
Chain of HDAC-1 (Q13547 whole entry): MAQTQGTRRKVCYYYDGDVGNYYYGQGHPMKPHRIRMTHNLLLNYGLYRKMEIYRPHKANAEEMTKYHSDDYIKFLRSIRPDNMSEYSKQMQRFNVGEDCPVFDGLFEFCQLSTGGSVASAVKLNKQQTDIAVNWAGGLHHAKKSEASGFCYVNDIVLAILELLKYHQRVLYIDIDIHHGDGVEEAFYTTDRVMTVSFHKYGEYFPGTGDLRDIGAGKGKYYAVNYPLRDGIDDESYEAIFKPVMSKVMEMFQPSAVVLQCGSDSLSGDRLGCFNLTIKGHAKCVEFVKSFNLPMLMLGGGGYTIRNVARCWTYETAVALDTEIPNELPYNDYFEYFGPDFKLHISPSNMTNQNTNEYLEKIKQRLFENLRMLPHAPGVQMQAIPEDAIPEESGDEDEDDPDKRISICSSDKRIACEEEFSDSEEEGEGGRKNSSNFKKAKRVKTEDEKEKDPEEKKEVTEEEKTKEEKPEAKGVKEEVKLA
Description: The following protocol was used to assay the compounds of the invention.
The mixture was pre-incubated for 5 minutes at room temperature. The reaction was started by bringing the temperature to 37° C. and adding 15 μl substrate. Total reaction volume was 50 μl.

[2] = tested on: human colon cancer HCT116 cells; test: MTT Assay; format: cell-based; settings: HCT-116, 72 hours, Table 21
Description: Compounds at various concentrations were added to human colon cancer HCT116 cells plated in 96-well plates. Cells were incubated for 72 hours at 37° C. in 5% CO2 incubator. MTT (3-[4,5-dimethylthiazol-2-yl]-2,5 diphenyl tetrazolium bromide, Sigma) was added at a final concentration of 0.5 mg/ml and incubated with the cells for 4 hours before an equal volume of solubilization buffer (50% N,N-dimethylformamide, 20% SDS, pH 4.7) was added onto cultured cells. After overnight incubation, solubilized dye was quantified by colorimetric reading at […] using a reference at 630 nM. OD values were converted to cell numbers according to a standard growth curve of the relevant cell line. The concentration which reduces cell numbers to 50% of those of DMSO-treated cells is determined as MTT IC50.

[3] = Log D (comparison with previously disclosed compounds); format: physicochemical; settings: pH 7.4

| SMILES | IC50 (HDAC-1) [nM] | IC50 [2] [nM] | logD [3] | effective concentration (EC) to induce p21 expression [1] [µM] |
| --- | --- | --- | --- | --- |
| Nc1ccccc1NC(=O)c1ccc(CNC(=O)OCc2cccnc2)cc1 [MS-275] |  |  |  | 1 |
| CN(C)CCN(C)C(=O)NCc1ccc(C(=O)Nc2cc(-c3cccs3)ccc2N)cc1 [compound 222, N-(2-amino-5-(thiophen-2-yl)phenyl)-4-((3-(2-(dimethylamino)ethyl)-3-methylureido)methyl)benzamide] | < 1000 | < 1000 | 1.05 |  |
| Nc1ccc(-c2cccs2)cc1NC(=O)c1ccc(CN2CC[C@H](Nc3cccnc3)C2)cc1 [compound 249, (S)—N-(2-Amino-5-(thiophen-2-yl)phenyl)-4-((3-(pyridin-3-ylamino)pyrrolidin-1-yl)methyl)benzamide] | < 1000 | < 1000 | 3.27 |  |

Now from value to molecule, other results behind:

| IC50 (HDAC-1) [nM] | IC50 [2] [nM] | logD [3] | SMILES | effective concentration (EC) to induce p21 expression [1] [µM] |
| --- | --- | --- | --- | --- |
| < 1000 | 1000 to 5000 | 2.85 | CN(C)CCSc1ccc(C(=O)Nc2cc(-c3cccs3)ccc2N)cc1 [compound 106, N-(2-amino-5-(thiophen-2-yl)phenyl)-4-(2-(dimethyl-amino)ethylthio)-benzamide] |  |
| < 1000 | < 1000 | 1.78 | COCCN1CCN(c2ccc(C(=O)Nc3cc(-c4cccs4)ccc3N)cc2)CC1 [compound 108, N-(2-amino-5-(thiophen-2-yl)phenyl)-4-(4-(2-methoxyethyl)-piperazin-1-yl)benzamide] |  |
| < 1000 | < 1000 | 1.85 | CN(C)CCOC(=O)NCc1ccc(C(=O)Nc2cc(-c3cccs3)ccc2N)cc1 [compound 221, 2-(Dimethylamino)ethyl 4-(2-amino-5-(thiophen-2-yl)phenylcarbamoyl)benzylcarbamate] |  |
| < 1000 | 1000 to 5000 | 1.81 | CN(C)[C@H]1CC(=O)N(Cc2ccc(C(=O)Nc3cc(-c4cccs4)ccc3N)cc2)C1=O [compound 242, (S)—N-(2-Amino-5-(thiophen-2-yl)phenyl)-4-((3-(dimethylamino)-2,5-dioxopyrrolidin-1-yl)methyl)benzamide] |  |
